Results from patent US9201173B2, “Polarizer protective film, polarizer, and liquid crystal display device” (FUJIFILM CORPORATION, priority 2010, dated 2015).

Assay: Acid dissociation constant by alkali titration
Type: physicochemical
Details: mixed solvent of tetrahydrofuran/water=6/4 by volume at 25° C.
Procedure: For measurement of the acid dissociation constant in the invention, employed is the alkali titration method described in Experimental Chemistry Course, 2nd Ed., pp. 215-217 (published by Maruzen).
The organic acid A is Tokyo Chemical's 1-benzyl-5-phenylbarbituric acid, and its acid dissociation constant in a mixed solvent of tetrahydrofuran/water=6/4 by volume at 25° C. is 4.0.

O=C1NC(=O)N(Cc2ccccc2)C(=O)C1c1ccccc1 (stereo not shown) [organic acid A, 1-benzyl-5-phenylbarbituric acid]
acid dissociation constant: 4.0
